Data: patent publication US10221174B2, “N-(phenylsulfonyl)benzamides and related compounds as BCL-2 inhibitors” (THE REGENTS OF THE UNIVERSITY OF MICHIGAN, priority 2016, dated 2019)
Like-named read-outs stand apart in the source and are kept apart here.

What was measured:
[1] = molecular target: Bcl-xL (Homo sapiens (Human), UniProt Q07817); experiment: Fluorescence polarization competitive binding assay, Bcl-xL; settings: FP competition, 10 nM Bcl-xL, 2 nM Flu-BAK probe; read-out: Inhibitory activity IC50 Bcl-xL
Bcl-xL, sequence (Q07817 whole entry): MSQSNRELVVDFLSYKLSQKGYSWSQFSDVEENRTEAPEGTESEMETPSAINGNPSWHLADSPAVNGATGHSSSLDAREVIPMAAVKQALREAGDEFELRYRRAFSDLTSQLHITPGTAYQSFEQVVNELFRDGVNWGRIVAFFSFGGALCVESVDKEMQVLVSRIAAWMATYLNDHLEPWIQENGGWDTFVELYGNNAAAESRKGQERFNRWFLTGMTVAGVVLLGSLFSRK
Description: (§1) Fluorescence polarization values were measured using the Infinite M-1000 plate reader (Tecan U.S., Research Triangle Park, N.C.) in Microfluor 1 96-well, black, round-bottom plates (Thermo Scientific). […] Plates were mixed and incubated at room temperature for 1 hour with gentle shaking to assure equilibrium. […] Equilibrium dissociation constants (Kd) were then calculated by fitting the sigmoidal dose-dependent FP increases as a function of protein concentrations using Graphpad Prism 5.0 software (Graphpad Software, San Diego, Calif.).
(§2) Mixtures of 5 μl of the tested inhibitors in DMSO and 120 μl of pre-incubated protein/probe complexes in the assay buffer were added into assay plates and incubated at room temperature for 2 hours with gentle shaking. […] FP values were measured as described above. IC50 values were determined by nonlinear regression fitting of the competition curves.

[2] = test system: RS4;11 cells; experiment: RS4;11 cell viability, CCK-8 assay; format: cell-based; settings: Homo sapiens, RS4-11, 96 h, CCK-8, 4 days, read-out: RS4, 11 IC50 (Bcl-2 dependent)
Description: RS4;11 cells were obtained from American Type Culture Collection (ATCC). They were used within three months of thawing fresh vials. Cells were maintained in the recommended culture medium with 10% FBS at 37° C. and an atmosphere of 5% CO2.
The effect of representative Compounds of the Disclosure on cell viability was determined using Cell Counting Kit-8 (CCK-8) assay (Dojindo, Rockville, Md.) according to the manufacturer's instructions. 200 μL of a RS4;11 cell suspension (10000 cells/well) in culture medium were seeded into 96-well plates and cultured overnight. Each tested compound was serially diluted in culture medium, and 20 μL of the compound dilution was added to the corresponding well of the cell plate. After the addition of the tested compound, the cells were incubated at 37° C. in an atmosphere of 5% CO2 for 4 days. At the end of 4 days, 10 μL of CCK-8 solution was added to each well of the plate and incubated for 1-4 hours. The plates were read at 450 nm on the microplate spectrophotometer (Epoch2, BioTek). The readings were normalized to the vehicle cells, and the IC50 was calculated by nonlinear regression analysis using GraphPad Prism 5 software.

[3] = molecular target: Bcl-2 (Homo sapiens (Human), UniProt P10415)
Bcl-2, sequence (P10415 whole entry): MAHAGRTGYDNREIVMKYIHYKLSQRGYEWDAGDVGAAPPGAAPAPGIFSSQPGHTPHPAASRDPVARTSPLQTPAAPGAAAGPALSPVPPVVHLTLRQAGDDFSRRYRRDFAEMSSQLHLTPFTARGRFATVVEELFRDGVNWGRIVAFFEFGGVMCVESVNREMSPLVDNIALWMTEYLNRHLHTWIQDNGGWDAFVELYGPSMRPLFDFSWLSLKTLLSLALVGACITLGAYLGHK
Description: as §1, §2

[4] = test system: MV4;11 cell line; experiment: MV4;11 inhibition; format: cell-based

IC50 [2] [µM]	IC50 ([4]; Homo sapiens, MV4-11) [µM]	IC50 [4] [µM]	Compound	IC50 [1] [µM]	IC50 [3] [µM]
0.012	0.0482		O=C(NS(=O)(=O)c1cc(F)c(NCC2CCOCC2)c([N+](=O)[O-])c1)c1ccc(N2CCN(CC3=C(c4ccc(Cl)cc4)CC4(CCC4)CC3)CC2)cc1Oc1cnc2[nH]ccc2c1 [compound 29, 2-((1H-pyrrolo[2,3-b]pyridin-5-yl)oxy)-4-(4-((6-(4-chlorophenyl)spiro[3.5]non-6-en-7-yl)methyl)piperazin-1-yl)-N-((3-fluoro-5-nitro-4-(((tetrahydro-2H-pyran-4-yl)methyl)amino)phenyl)sulfonyl)benzamide]		
0.019	0.0225		O=C(NS(=O)(=O)c1ccc(NCC2CCOCC2)c([N+](=O)[O-])c1)c1ncc(N2CCN(CC3=C(c4ccc(Cl)cc4)CC4(CCC4)CC3)CC2)cc1Oc1cnc2[nH]ccc2c1 [compound 30, 3-((1H-pyrrolo[2,3-b]pyridin-5-yl)oxy)-5-(4-((6-(4-chlorophenyl)spiro[3.5]non-6-en-7-yl)methyl)piperazin-1-yl)-N-((3-nitro-4-(((tetrahydro-2H-pyran-4-yl)methyl)amino)phenyl)sulfonyl)picolinamide]		
0.034	0.116		COCCOCCNc1ccc(S(=O)(=O)NC(=O)c2ncc(N3CCN(CC4=C(c5ccc(Cl)cc5)CC5(CCC5)CC4)CC3)cc2Oc2cnc3[nH]ccc3c2)cc1[N+](=O)[O-] [compound 31, 3-((1H-pyrrolo[2,3-b]pyridin-5-yl)oxy)-5-(4-((6-(4-chlorophenyl)spiro[3.5]non-6-en-7-yl)methyl)piperazin-1-yl)-N-((4-((2-(2-methoxyethoxy)ethyl)amino)-3-nitrophenyl)sulfonyl)picolinamide]		
0.611	3.6		COCCn1cc(S(=O)(=O)NC(=O)c2ccc(N3CCN(CC4=C(c5ccc(Cl)cc5)CC5(CCC5)CC4)CC3)cc2Oc2cnc3[nH]ccc3c2)cc1[N+](=O)[O-] [compound 35, 2-((1H-pyrrolo[2,3-b]pyridin-5-yl)oxy)-4-(4-((6-(4-chlorophenyl)spiro[3.5]non-6-en-7-yl)methyl)piperazin-1-yl)-N-((1-(2-methoxyethyl)-5-nitro-1H-pyrrol-3-yl)sulfonyl)benzamide]		
0.013	0.0444		O=C(NS(=O)(=O)c1ccc(NC[C@H]2COCCO2)c([N+](=O)[O-])c1)c1ccc(N2CCN(CC3=C(c4ccc(Cl)cc4)CC4(CCC4)CC3)CC2)c(F)c1Oc1cnc2[nH]ccc2c1 [compound 36, (S)-N-((4-(((1,4-dioxan-2-yl)methyl)amino)-3-nitrophenyl)sulfonyl)-2-((1H-pyrrolo[2,3-b]pyridin-5-yl)oxy)-4-(4-((6-(4-chlorophenyl)spiro[3.5]non-6-en-7-yl)methyl)piperazin-1-yl)-3-fluorobenzamide]		
0.068	0.154		COCCOCCNc1ccc(S(=O)(=O)NC(=O)c2cc(F)c(N3CCN(CC4=C(c5ccc(Cl)cc5)CC5(CCC5)CC4)CC3)cc2Oc2cnc3[nH]ccc3c2)cc1[N+](=O)[O-] [compound 37, 2-((1H-pyrrolo[2,3-b]pyridin-5-yl)oxy)-4-(4-((6-(4-chlorophenyl)spiro[3.5]non-6-en-7-yl)methyl)piperazin-1-yl)-5-fluoro-N-((4-((2-(2-methoxyethoxy)ethyl)amino)-3-nitrophenyl)sulfonyl)benzamide]		
0.066	0.103		O=C(NS(=O)(=O)C1=CC2C(=O)N(CC3CCOCC3)CC2C([N+](=O)[O-])=C1)c1ccc(N2CCN(CC3=C(c4ccc(Cl)cc4)CC4(CCC4)CC3)CC2)cc1Oc1cnc2[nH]ccc2c1 (stereo not drawn) [compound 38, 2-((1H-pyrrolo[2,3-b]pyridin-5-yl)oxy)-4-(4-((6-(4-chlorophenyl)spiro[3.5]non-6-en-7-yl)methyl)piperazin-1-yl)-N-((7-nitro-3-oxo-2-((tetrahydro-2H-pyran-4-yl)methyl)-2,3,3a,7a-tetrahydro-1H-isoindol-5-yl)sulfonyl)benzamide]		
0.031		0.0337	O=C(NS(=O)(=O)c1ccc(NC[C@H]2COCCO2)c([N+](=O)[O-])c1)c1cc(F)c(N2CCN(CC3=C(c4ccc(Cl)cc4)CC4(CCC4)CC3)CC2)cc1Oc1cnc2[nH]ccc2c1 [compound 39, (S)-N-((4-(((1,4-dioxan-2-yl)methyl)amino)-3-nitrophenyl)sulfonyl)-2-((1H-pyrrolo[2,3-b]pyridin-5-yl)oxy)-4-(4-((6-(4-chlorophenyl)spiro[3.5]non-6-en-7-yl)methyl)piperazin-1-yl)-5-fluorobenzamide]		
0.052	0.0181		O=C(NS(=O)(=O)c1ccc(NCC2CCOCC2)c([N+](=O)[O-])c1)c1c(F)cc(N2CCN(CC3=C(c4ccc(Cl)cc4)CC4(CCC4)CC3)CC2)cc1Oc1cnc2[nH]ccc2c1 [compound 41, 2-((1H-pyrrolo[2,3-b]pyridin-5-yl)oxy)-4-(4-((6-(4-chlorophenyl)spiro[3.5]non-6-en-7-yl)methyl)piperazin-1-yl)-6-fluoro-N-((3-nitro-4-(((tetrahydro-2H-pyran-4-yl)methyl)amino)phenyl)sulfonyl)benzamide]		
0.111	0.0881		O=C(NS(=O)(=O)c1ccc(NCC2CCOCC2)c([N+](=O)[O-])c1)c1ccc(N2CCN(CC3=C(c4ccc(Cl)cc4)CC4(CCC4)CC3)CC2)c(F)c1Oc1cnc2[nH]ccc2c1 [compound 42, 2-((1H-pyrrolo[2,3-b]pyridin-5-yl)oxy)-4-(4-((6-(4-chlorophenyl)spiro[3.5]non-6-en-7-yl)methyl)piperazin-1-yl)-3-fluoro-N-((3-nitro-4-(((tetrahydro-2H-pyran-4-yl)methyl)amino)phenyl)sulfonyl)benzamide]		
0.08	0.126		COCCOCCNc1ccc(S(=O)(=O)NC(=O)c2ccc(N3CCN(CC4=C(c5ccc(Cl)cc5)CC5(CCC5)CC4)CC3)c(F)c2Oc2cnc3[nH]ccc3c2)cc1[N+](=O)[O-] [compound 43, 2-((1H-pyrrolo[2,3-b]pyridin-5-yl)oxy)-4-(4-((6-(4-chlorophenyl)spiro[3.5]non-6-en-7-yl)methyl)piperazin-1-yl)-3-fluoro-N-((4-((2-(2-methoxyethoxy)ethyl)amino)-3-nitrophenyl)sulfonyl)benzamide]		

Compound	IC50 [2] [µM]	IC50 ([4]; Homo sapiens, MV4-11) [µM]	IC50 [4] [µM]	IC50 [1] [µM]	IC50 [3] [µM]
O=C(NS(=O)(=O)c1cccc([N+](=O)[O-])c1)c1ccc(N2CCN(CC3=C(c4ccc(Cl)cc4)CC4(CCC4)CC3)CC2)cc1Oc1cnc2[nH]ccc2c1 [Cpd. No. 4, 2-((1H-pyrrolo[2,3-b]pyridin-5-yl)oxy)-4-(4-((6-(4-chlorophenyl)spiro[3.5]non-6-en-7-yl)methyl)piperazin-1-yl)-N-((3-nitrophenyl)sulfonyl)benzamide]	0.427			0.0086	0.0031
O=C(NS(=O)(=O)c1ccc(NCC2CCOCC2)c([N+](=O)[O-])c1)c1ccc(C2=CCN(CC3=C(c4ccc(Cl)cc4)CC4(CCC4)CC3)CC2)cc1Oc1cnc2[nH]ccc2c1 [compound 7, 2-((1H-pyrrolo[2,3-b]pyridin-5-yl)oxy)-4-(1-((6-(4-chlorophenyl)spiro[3.5]non-6-en-7-yl)methyl)-1,2,3,6-tetrahydropyridin-4-yl)-N-((3-nitro-4-(((tetrahydro-2H-pyran-4-yl)methyl)amino)phenyl)sulfonyl)benzamide]	0.035			0.0157	
O=C(NS(=O)(=O)c1cc([N+](=O)[O-])c2c(cnn2CC2CCOCC2)c1)c1ccc(N2CCN(CC3=C(c4ccc(Cl)cc4)CC4(CCC4)CC3)CC2)cc1Oc1cnc2[nH]ccc2c1 [compound 60, 2-((1H-pyrrolo[2,3-b]pyridin-5-yl)oxy)-4-(4-((6-(4-chlorophenyl)spiro[3.5]non-6-en-7-yl)methyl)piperazin-1-yl)-N-((7-nitro-1-((tetrahydro-2H-pyran-4-yl)methyl)-1H-indazol-5-yl)sulfonyl)benzamide]	0.252			0.0675	
O=C(NS(=O)(=O)c1cc([N+](=O)[O-])c2nn(CC3CCOCC3)cc2c1)c1ccc(N2CCN(CC3=C(c4ccc(Cl)cc4)CC4(CCC4)CC3)CC2)cc1Oc1cnc2[nH]ccc2c1 [compound 61, 2-((1H-pyrrolo[2,3-b]pyridin-5-yl)oxy)-4-(4-((6-(4-chlorophenyl)spiro[3.5]non-6-en-7-yl)methyl)piperazin-1-yl)-N-((7-nitro-2-((tetrahydro-2H-pyran-4-yl)methyl)-2H-indazol-5yl)sulfonyl)benzamide]	0.043			0.0131	
O=C(NS(=O)(=O)c1cc([N+](=O)[O-])c2[nH]c(-c3ccncc3)nc2c1)c1ccc(N2CCN(CC3=C(c4ccc(Cl)cc4)CC4(CCC4)CC3)CC2)cc1Oc1cnc2[nH]ccc2c1 [compound 66, 2-((1H-pyrrolo[2,3-b]pyridin-5-yl)oxy)-4-(4-((6-(4-chlorophenyl)spiro[3.5]non-6-en-7 yl)methyl)piperazin-1-yl)-N-((7-nitro-2-(pyridin-4-yl)-1H-benzo[d]imidazol-5-yl)sulfonyl)benzamide]	0.243	> 1000			
